In the supplement of paper PMC4862054:

How the values were obtained:
Settings in all cases: incubation time: 72 h
[1] = system: HCC1937; assay: drug sensitivity score (DSS), CellTox Green (DSS (AUC-based score)); higher = stronger drug effect (viability inhibition or cytotoxicity); extreme values may be limits of the assay
Summary of the method: (§1)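 The area under the fitted dose-response curve was used to calculate the drug sensitivity score. Cells from breast cancer lines were incubated for 72 h in 384-well plates with compound at 5 concentrations spaced 10-fold over a 10,000-fold range specific to each compound. Plates were read for CellTox Green and then CellTiter-Glo, and normalised to 0.1 % DMSO and a positive kill control.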

[2] = system: MCF-10A; assay: as above
Summary of the method: as §1

[3] = system: MFM-223; assay: as above
Summary of the method: as §1

[4] = system: CAL-85-1; assay: normalised viability (% of control), CellTiter-Blue; higher = more viable cells (about 100 = DMSO control)
Method: (§2)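 DSRT, CellTiter-Blue viability, 72 h incubation. Signal is normalised to DMSO and benzethonium chloride controls. Value is the normalised response at dose 6.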

[5] = system: MDA-MB-453; assay: as above
Method: as §2

[6] = system: CAL-148; assay: as above
Method: as §2

[7] = system: CAL-51; assay: as above
Method: as §2

[8] = system: HDQ-P1; assay: as above
Method: as §2

[9] = system: DU-4475; assay: as above
Method: as §2

[10] = system: MDA-MB-436; assay: normalised viability (% of control), CellTiter-Blue; higher = more viable cells (100 = DMSO, 0 = benzethonium chloride kill control)
Method: (§3)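 DSRT, CellTiter-Blue viability, 72 h incubation. Signal is normalised to DMSO and benzethonium chloride controls. Value is the normalised response at dose 1.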

[11] = system: HCC1937; assay: as above
Method: as §3

[12] = system: CAL-85-1; assay: as above
Method: as §3

[13] = system: BT-549; assay: as above
Method: as §3

[14] = system: MFM-223; assay: as above
Method: as §3

[15] = system: CAL-120; assay: as above
Method: as §3

[16] = system: SK-BR-3; assay: as above
Method: as §3

[17] = system: MDA-MB-453; assay: as above
Method: as §3

[18] = system: CAL-148; assay: as above
Method: as §3

[19] = system: BT-474; assay: as above
Method: as §3

[20] = system: MDA-MB-231; assay: as above
Method: as §3

[21] = system: CAL-51; assay: as above
Method: as §3

[22] = system: HCC1143; assay: as above
Method: as §3

[23] = system: HCC1599; assay: as above
Method: as §3

[24] = system: MDA-MB-468; assay: as above
Method: as §3

[25] = system: HDQ-P1; assay: as above
Method: as §3

[26] = system: Hs578T; assay: as above
Method: as §3

[27] = system: DU-4475; assay: as above
Method: as §3

Question: What does the source list for `C=CCc1cccc(/C=N/NC(=O)CN2CCN(Cc3ccccc3)CC2)c1O` [PAC-1]?
Answer: drug sensitivity score [1]: 0; drug sensitivity score [2]: 0; drug sensitivity score [3]: 0

Question: What does the source list for `C1CN1c1nc(N2CC2)nc(N2CC2)n1` [Triethylenemelamine]?
Answer: normalised viability ([4]; 300 nM): 99%; normalised viability ([5]; 300 nM): 108%; normalised viability ([6]; 300 nM): 118%; normalised viability ([7]; 300 nM): 105%; normalised viability ([8]; 300 nM): 105%; normalised viability ([9]; 300 nM): 97.2%; normalised viability ([10]; 1 nM): 98.5%; normalised viability ([11]; 1 nM): 86.6%; normalised viability ([12]; 1 nM): 107%; normalised viability ([13]; 1 nM): 107%; normalised viability ([14]; 1 nM): 100%; normalised viability ([15]; 1 nM): 103%; normalised viability ([16]; 1 nM): 99%; normalised viability ([17]; 1 nM): 104%; normalised viability ([18]; 1 nM): 108%; normalised viability ([19]; 1 nM): 117%; normalised viability ([20]; 1 nM): 96.2%; normalised viability ([21]; 1 nM): 101%; normalised viability ([22]; 1 nM): 101%; normalised viability ([23]; 1 nM): 76.4%; normalised viability ([24]; 1 nM): 102%; normalised viability ([25]; 1 nM): 109%; normalised viability ([26]; 1 nM): 108%; normalised viability ([27]; 1 nM): 104%

Question: How did the normalised viability ([4]; 300 nM) turn out when `CC[C@H](Nc1ncnc2[nH]cnc12)c1nc2cccc(F)c2c(=O)n1-c1ccccc1` [CAL-101] was run?
Answer: 81.9%

Question: And the normalised viability ([5]; 300 nM)?
Answer: 86%

Question: And the normalised viability ([6]; 300 nM)?
Answer: 90.4%

Question: What about the normalised viability ([7]; 300 nM) of the same compound?
Answer: 85.3%

Question: What about the normalised viability ([8]; 300 nM) of the same compound?
Answer: 58%

Question: And the normalised viability ([9]; 300 nM)?
Answer: 91.1%

Question: What about the normalised viability ([10]; 1 nM) of the same compound?
Answer: 116%

Question: And the normalised viability ([11]; 1 nM)?
Answer: 121%

Question: What about the normalised viability ([12]; 1 nM) of the same compound?
Answer: 90%

Question: What about the normalised viability ([13]; 1 nM) of the same compound?
Answer: 97.9%

Question: And the normalised viability ([14]; 1 nM)?
Answer: 91.1%

Question: And the normalised viability ([15]; 1 nM)?
Answer: 104%

Question: And the normalised viability ([16]; 1 nM)?
Answer: 97.4%

Question: What about the normalised viability ([17]; 1 nM) of the same compound?
Answer: 89.8%

Question: What about the normalised viability ([18]; 1 nM) of the same compound?
Answer: 91.3%

Question: And the normalised viability ([19]; 1 nM)?
Answer: 100%

Question: And the normalised viability ([20]; 1 nM)?
Answer: 82.3%

Question: What about the normalised viability ([21]; 1 nM) of the same compound?
Answer: 88.6%

Question: What about the normalised viability ([22]; 1 nM) of the same compound?
Answer: 94%

Question: And the normalised viability ([23]; 1 nM)?
Answer: 82.4%

Question: What about the normalised viability ([24]; 1 nM) of the same compound?
Answer: 100%

Question: What about the normalised viability ([25]; 1 nM) of the same compound?
Answer: 89.5%

Question: And the normalised viability ([26]; 1 nM)?
Answer: 118%

Question: And the normalised viability ([27]; 1 nM)?
Answer: 106%

Question: `O=C(/C=C/c1cccnc1)NCCCCC1CCN(C(=O)c2ccccc2)CC1` [FK-866] was tested. Which normalised viability ([4]; 30 nM) did it give?
Answer: 72.4%

Question: And the normalised viability ([5]; 30 nM)?
Answer: 23.8%

Question: And the normalised viability ([6]; 30 nM)?
Answer: 73.7%

Question: What about the normalised viability ([7]; 30 nM) of the same compound?
Answer: 48.8%

Question: And the normalised viability ([8]; 30 nM)?
Answer: 64.3%

Question: And the normalised viability ([9]; 30 nM)?
Answer: 31.4%

Question: What about the normalised viability ([10]; 0.1 nM) of the same compound?
Answer: 107%

Question: And the normalised viability ([11]; 0.1 nM)?
Answer: 107%

Question: What about the normalised viability ([12]; 0.1 nM) of the same compound?
Answer: 85.7%

Question: What about the normalised viability ([13]; 0.1 nM) of the same compound?
Answer: 97.3%

Question: And the normalised viability ([14]; 0.1 nM)?
Answer: 105%

Question: And the normalised viability ([15]; 0.1 nM)?
Answer: 106%

Question: And the normalised viability ([16]; 0.1 nM)?
Answer: 94.4%

Question: And the normalised viability ([17]; 0.1 nM)?
Answer: 103%

Question: What about the normalised viability ([18]; 0.1 nM) of the same compound?
Answer: 110%

Question: And the normalised viability ([19]; 0.1 nM)?
Answer: 99.3%

Question: What about the normalised viability ([20]; 0.1 nM) of the same compound?
Answer: 96.6%

Question: And the normalised viability ([21]; 0.1 nM)?
Answer: 101%

Question: What about the normalised viability ([22]; 0.1 nM) of the same compound?
Answer: 97.5%

Question: What about the normalised viability ([23]; 0.1 nM) of the same compound?
Answer: 105%

Question: And the normalised viability ([24]; 0.1 nM)?
Answer: 106%

Question: And the normalised viability ([25]; 0.1 nM)?
Answer: 105%

Question: And the normalised viability ([26]; 0.1 nM)?
Answer: 105%

Question: What about the normalised viability ([27]; 0.1 nM) of the same compound?
Answer: 102%

Question: How did the normalised viability ([4]; 30 nM) turn out when `C=CC(=O)N1CCC[C@@H](n2nc(-c3ccc(Oc4ccccc4)cc3)c3c(N)ncnc32)C1` was run?
Answer: 96%

Question: And the normalised viability ([5]; 30 nM)?
Answer: 50.2%

Question: What about the normalised viability ([6]; 30 nM) of the same compound?
Answer: 44.8%

Question: What about the normalised viability ([7]; 30 nM) of the same compound?
Answer: 92.2%

Question: And the normalised viability ([8]; 30 nM)?
Answer: 107%

Question: What about the normalised viability ([9]; 30 nM) of the same compound?
Answer: 84.4%

Question: And the normalised viability ([10]; 0.1 nM)?
Answer: 91%

Question: What about the normalised viability ([11]; 0.1 nM) of the same compound?
Answer: 93.3%

Question: And the normalised viability ([12]; 0.1 nM)?
Answer: 86.1%

Question: What about the normalised viability ([13]; 0.1 nM) of the same compound?
Answer: 118%

Question: And the normalised viability ([14]; 0.1 nM)?
Answer: 99.8%

Question: What about the normalised viability ([15]; 0.1 nM) of the same compound?
Answer: 81.3%

Question: And the normalised viability ([16]; 0.1 nM)?
Answer: 90.7%

Question: What about the normalised viability ([17]; 0.1 nM) of the same compound?
Answer: 103%

Question: And the normalised viability ([18]; 0.1 nM)?
Answer: 102%

Question: What about the normalised viability ([19]; 0.1 nM) of the same compound?
Answer: 107%

Question: And the normalised viability ([20]; 0.1 nM)?
Answer: 101%

Question: What about the normalised viability ([21]; 0.1 nM) of the same compound?
Answer: 93.1%

Question: What about the normalised viability ([22]; 0.1 nM) of the same compound?
Answer: 88.1%

Question: And the normalised viability ([23]; 0.1 nM)?
Answer: 105%

Question: What about the normalised viability ([24]; 0.1 nM) of the same compound?
Answer: 103%

Question: What about the normalised viability ([25]; 0.1 nM) of the same compound?
Answer: 105%

Question: And the normalised viability ([26]; 0.1 nM)?
Answer: 119%

Question: What about the normalised viability ([27]; 0.1 nM) of the same compound?
Answer: 94.8%

Question: Which normalised viability ([4]; 7.5 nM) does the source give for `CC(=O)Nc1cccc(-n2c(=O)n(C3CC3)c(=O)c3c(Nc4ccc(I)cc4F)n(C)c(=O)c(C)c32)c1` here?
Answer: 76.2%

Question: And the normalised viability ([5]; 7.5 nM)?
Answer: 99.6%

Question: What about the normalised viability ([6]; 7.5 nM) of the same compound?
Answer: 90.7%

Question: What about the normalised viability ([7]; 7.5 nM) of the same compound?
Answer: 81.6%

Question: What about the normalised viability ([8]; 7.5 nM) of the same compound?
Answer: 54.1%

Question: And the normalised viability ([9]; 7.5 nM)?
Answer: 0.58%

Question: What about the normalised viability ([10]; 0.025 nM) of the same compound?
Answer: 101%

Question: And the normalised viability ([11]; 0.025 nM)?
Answer: 93.7%

Question: What about the normalised viability ([12]; 0.025 nM) of the same compound?
Answer: 107%

Question: What about the normalised viability ([13]; 0.025 nM) of the same compound?
Answer: 104%

Question: And the normalised viability ([14]; 0.025 nM)?
Answer: 105%

Question: What about the normalised viability ([15]; 0.025 nM) of the same compound?
Answer: 104%

Question: What about the normalised viability ([16]; 0.025 nM) of the same compound?
Answer: 135%

Question: And the normalised viability ([17]; 0.025 nM)?
Answer: 107%

Question: And the normalised viability ([18]; 0.025 nM)?
Answer: 107%

Question: And the normalised viability ([19]; 0.025 nM)?
Answer: 100%

Question: And the normalised viability ([20]; 0.025 nM)?
Answer: 105%

Question: What about the normalised viability ([21]; 0.025 nM) of the same compound?
Answer: 98.7%

Question: And the normalised viability ([22]; 0.025 nM)?
Answer: 102%

Question: What about the normalised viability ([23]; 0.025 nM) of the same compound?
Answer: 104%

Question: What about the normalised viability ([24]; 0.025 nM) of the same compound?
Answer: 112%

Question: What about the normalised viability ([25]; 0.025 nM) of the same compound?
Answer: 105%

Question: What about the normalised viability ([26]; 0.025 nM) of the same compound?
Answer: 113%

Question: What about the normalised viability ([27]; 0.025 nM) of the same compound?
Answer: 105%

Question: With `O=C(O)CCCCC(CCSCc1ccccc1)SCc1ccccc1` (centres undefined) [CPI-613] as the compound, how does the drug sensitivity score [1] read?
Answer: 0

Question: And the drug sensitivity score [2]?
Answer: 0

Question: What about the drug sensitivity score [3] of the same compound?
Answer: 0

Question: What does the source list for `CC(=O)Nc1cccc(-n2c(=O)n(C3CC3)c(=O)c3c(Nc4ccc(I)cc4F)n(C)c(=O)c(C)c32)c1` [Trametinib]?
Answer: drug sensitivity score [1]: 0; drug sensitivity score [2]: 4.18; drug sensitivity score [3]: 0
